The results in this text go back to paper PMC6927813 (Science (New York, N.Y.), 2019).

One series deals with T1, ParBF (Escherichia coli, UniProt P62558).
T1 sequence (P62558 1-323): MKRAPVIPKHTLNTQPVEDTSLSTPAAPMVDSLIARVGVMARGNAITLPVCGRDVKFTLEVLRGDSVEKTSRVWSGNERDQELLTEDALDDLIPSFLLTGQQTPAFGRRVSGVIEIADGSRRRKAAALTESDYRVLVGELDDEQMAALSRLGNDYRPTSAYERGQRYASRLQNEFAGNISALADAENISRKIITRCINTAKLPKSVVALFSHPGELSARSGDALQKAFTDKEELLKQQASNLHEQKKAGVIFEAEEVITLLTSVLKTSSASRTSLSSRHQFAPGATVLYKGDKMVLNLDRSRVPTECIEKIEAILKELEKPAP
The series is described as follows: membrane-spotting assay, radiolabelled nucleotide. The format is binding. Conditions: labelled compound.

The next series concerns the target T2, ParBBsu (full-length) (Bacillus subtilis, UniProt P26497).
T2 sequence (P26497 1-282): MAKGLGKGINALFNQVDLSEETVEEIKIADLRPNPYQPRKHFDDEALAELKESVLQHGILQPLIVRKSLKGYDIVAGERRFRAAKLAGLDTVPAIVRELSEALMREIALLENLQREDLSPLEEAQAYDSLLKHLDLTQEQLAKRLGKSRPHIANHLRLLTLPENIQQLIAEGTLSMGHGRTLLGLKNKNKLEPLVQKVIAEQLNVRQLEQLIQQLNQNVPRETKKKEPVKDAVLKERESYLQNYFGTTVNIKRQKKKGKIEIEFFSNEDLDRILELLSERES
The series is described as follows: isothermal titration calorimetry. The format is binding. Background: ITC needs no label: the signal is the heat of the interaction.

For a further series, the target named is T3, ParBP1 (Punavirus P1, UniProt Q38420).
T3 sequence (Q38420 1-333): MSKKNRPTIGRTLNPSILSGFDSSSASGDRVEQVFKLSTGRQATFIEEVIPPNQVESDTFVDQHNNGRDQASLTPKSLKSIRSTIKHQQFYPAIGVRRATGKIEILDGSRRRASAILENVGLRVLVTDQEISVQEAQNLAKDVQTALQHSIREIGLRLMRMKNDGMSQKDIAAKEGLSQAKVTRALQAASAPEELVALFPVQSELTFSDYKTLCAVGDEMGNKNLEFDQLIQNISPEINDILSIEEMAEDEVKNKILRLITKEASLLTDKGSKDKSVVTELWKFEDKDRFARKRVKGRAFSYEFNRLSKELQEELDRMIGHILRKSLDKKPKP
The series is described as follows: membrane-spotting assay, radiolabelled nucleotide. The format is binding. Conditions: labelled compound.

The series “cross-linking” deals with the molecule itself. The series is described as follows: cross-linking.
The series “crystal structure” deals with the molecule itself. As to the kind of experiment: crystal structure.

As a reminder, the Kd is the free concentration of one partner at which half of the binding sites on the other are occupied at equilibrium, for simple one-to-one binding. The low end stands for a tighter complex, the high end for a looser complex. Take `Nc1ccn([C@@H]2O[C@H](COP(=O)(O)OP(=O)(O)OP(=O)(O)O)[C@@H](O)[C@H]2O)c(=O)n1` [CTP]: the “membrane-spotting assay, radiolabelled nucleotide” value was “CTP was also bound by plasmid-encoded ParB proteins (F plasmid ParBF” at ParBF; “plasmid-encoded ParB proteins (F plasmid ParBF and P1 prophage ParBP1)” at ParBP1. The molecule also registered a Kd on ParBBsu (full-length) of 10 to 50 µM.

B1: ParBBsu(T22C) (natural protein)
chain: MAKGLGKGINALFNQVDLSEECVEEIKIADLRPNPYQPRKHFDDEALAELKESVLQHGILQPLIVRKSLKGYDIVAGERRFRAAKLAGLDTVPAIVRELSEALMREIALLENLQREDLSPLEEAQAYDSLLKHLDLTQEQLAKRLGKSRPHIANHLRLLTLPENIQQLIAEGTLSMGHGRTLLGLKNKNKLEPLVQKVIAEQLNVRQLEQLIQQLNQNVPRETKKKEPVKDAVLKERESYLQNYFGTTVNIKRQKKKGKIEIEFFSNEDLDRILELLSERES
Regarding B1, the binding result in “cross-linking” was “binds”.

B2: ParBBsu(T22C, S278C) (natural protein)
chain: MAKGLGKGINALFNQVDLSEECVEEIKIADLRPNPYQPRKHFDDEALAELKESVLQHGILQPLIVRKSLKGYDIVAGERRFRAAKLAGLDTVPAIVRELSEALMREIALLENLQREDLSPLEEAQAYDSLLKHLDLTQEQLAKRLGKSRPHIANHLRLLTLPENIQQLIAEGTLSMGHGRTLLGLKNKNKLEPLVQKVIAEQLNVRQLEQLIQQLNQNVPRETKKKEPVKDAVLKERESYLQNYFGTTVNIKRQKKKGKIEIEFFSNEDLDRILELLCERES
Usually stoichiometry N stands for a count of units in the complex or per binding partner. Take B2: in “cross-linking”, the “stoichiometry N” value came out at 2.

B3: ParBBsu(21-218) (domain or fragment)
chain: ETVEEIKIADLRPNPYQPRKHFDDEALAELKESVLQHGILQPLIVRKSLKGYDIVAGERRFRAAKLAGLDTVPAIVRELSEALMREIALLENLQREDLSPLEEAQAYDSLLKHLDLTQEQLAKRLGKSRPHIANHLRLLTLPENIQQLIAEGTLSMGHGRTLLGLKNKNKLEPLVQKVIAEQLNVRQLEQLIQQLNQN
Take B3: the binding result in the series “crystal structure” is recorded as “binds”.
